Assays:
Androgen receptor = target: T1, Androgen receptor (Homo sapiens, UniProt P10275); test: Binding affinity to androgen receptor
T1 sequence (P10275 whole entry): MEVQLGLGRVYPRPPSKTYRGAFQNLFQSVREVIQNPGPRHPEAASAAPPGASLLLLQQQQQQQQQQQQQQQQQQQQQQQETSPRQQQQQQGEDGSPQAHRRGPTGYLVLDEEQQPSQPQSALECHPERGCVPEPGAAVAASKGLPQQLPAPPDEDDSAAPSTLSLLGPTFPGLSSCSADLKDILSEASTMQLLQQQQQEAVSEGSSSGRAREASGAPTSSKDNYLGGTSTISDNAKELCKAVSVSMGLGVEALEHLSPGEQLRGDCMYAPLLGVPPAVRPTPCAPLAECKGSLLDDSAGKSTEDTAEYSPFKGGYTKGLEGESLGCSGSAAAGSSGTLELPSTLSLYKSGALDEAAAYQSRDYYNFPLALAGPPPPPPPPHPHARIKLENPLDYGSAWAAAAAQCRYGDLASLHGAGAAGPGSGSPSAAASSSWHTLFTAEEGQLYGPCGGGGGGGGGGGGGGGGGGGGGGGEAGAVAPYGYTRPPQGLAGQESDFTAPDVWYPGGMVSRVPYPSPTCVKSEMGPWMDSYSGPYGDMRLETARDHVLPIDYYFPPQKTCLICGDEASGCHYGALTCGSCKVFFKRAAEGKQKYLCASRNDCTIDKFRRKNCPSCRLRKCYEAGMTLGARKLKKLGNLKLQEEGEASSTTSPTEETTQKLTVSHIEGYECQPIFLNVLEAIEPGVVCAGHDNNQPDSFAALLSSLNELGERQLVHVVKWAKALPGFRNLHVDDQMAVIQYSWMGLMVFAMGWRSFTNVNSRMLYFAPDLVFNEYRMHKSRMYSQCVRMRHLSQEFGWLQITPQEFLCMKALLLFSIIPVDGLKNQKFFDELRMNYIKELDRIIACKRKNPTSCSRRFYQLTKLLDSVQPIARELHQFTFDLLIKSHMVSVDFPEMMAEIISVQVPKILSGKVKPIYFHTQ

Glucocorticoid receptor [1] = target: T2, Glucocorticoid receptor (Homo sapiens, UniProt P04150); test: Binding affinity to glucocorticoid receptor
T2 sequence (P04150 whole entry): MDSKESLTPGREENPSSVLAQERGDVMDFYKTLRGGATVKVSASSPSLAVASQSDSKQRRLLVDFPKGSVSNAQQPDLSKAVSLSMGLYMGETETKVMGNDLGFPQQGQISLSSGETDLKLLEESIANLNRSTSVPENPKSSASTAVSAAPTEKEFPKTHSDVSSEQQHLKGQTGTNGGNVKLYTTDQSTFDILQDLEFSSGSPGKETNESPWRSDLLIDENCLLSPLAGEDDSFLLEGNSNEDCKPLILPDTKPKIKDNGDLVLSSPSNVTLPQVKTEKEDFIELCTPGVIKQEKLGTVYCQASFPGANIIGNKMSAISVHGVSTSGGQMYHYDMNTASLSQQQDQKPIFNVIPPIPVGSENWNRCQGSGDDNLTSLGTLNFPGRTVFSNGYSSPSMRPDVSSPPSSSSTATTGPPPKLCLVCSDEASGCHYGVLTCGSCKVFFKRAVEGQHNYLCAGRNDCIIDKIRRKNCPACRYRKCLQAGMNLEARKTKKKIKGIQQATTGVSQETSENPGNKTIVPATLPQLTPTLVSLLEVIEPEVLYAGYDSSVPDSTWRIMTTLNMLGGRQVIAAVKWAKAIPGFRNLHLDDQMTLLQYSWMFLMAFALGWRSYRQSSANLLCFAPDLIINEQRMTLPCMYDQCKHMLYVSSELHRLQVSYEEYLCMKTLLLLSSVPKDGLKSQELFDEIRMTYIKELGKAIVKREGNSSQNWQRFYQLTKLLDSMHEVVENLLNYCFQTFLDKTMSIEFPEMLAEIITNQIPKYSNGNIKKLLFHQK

[2] = target: T3, Mineralocorticoid receptor (Homo sapiens, UniProt P08235); test: Binding affinity to mineralocorticoid receptor
T3 sequence (P08235 whole entry): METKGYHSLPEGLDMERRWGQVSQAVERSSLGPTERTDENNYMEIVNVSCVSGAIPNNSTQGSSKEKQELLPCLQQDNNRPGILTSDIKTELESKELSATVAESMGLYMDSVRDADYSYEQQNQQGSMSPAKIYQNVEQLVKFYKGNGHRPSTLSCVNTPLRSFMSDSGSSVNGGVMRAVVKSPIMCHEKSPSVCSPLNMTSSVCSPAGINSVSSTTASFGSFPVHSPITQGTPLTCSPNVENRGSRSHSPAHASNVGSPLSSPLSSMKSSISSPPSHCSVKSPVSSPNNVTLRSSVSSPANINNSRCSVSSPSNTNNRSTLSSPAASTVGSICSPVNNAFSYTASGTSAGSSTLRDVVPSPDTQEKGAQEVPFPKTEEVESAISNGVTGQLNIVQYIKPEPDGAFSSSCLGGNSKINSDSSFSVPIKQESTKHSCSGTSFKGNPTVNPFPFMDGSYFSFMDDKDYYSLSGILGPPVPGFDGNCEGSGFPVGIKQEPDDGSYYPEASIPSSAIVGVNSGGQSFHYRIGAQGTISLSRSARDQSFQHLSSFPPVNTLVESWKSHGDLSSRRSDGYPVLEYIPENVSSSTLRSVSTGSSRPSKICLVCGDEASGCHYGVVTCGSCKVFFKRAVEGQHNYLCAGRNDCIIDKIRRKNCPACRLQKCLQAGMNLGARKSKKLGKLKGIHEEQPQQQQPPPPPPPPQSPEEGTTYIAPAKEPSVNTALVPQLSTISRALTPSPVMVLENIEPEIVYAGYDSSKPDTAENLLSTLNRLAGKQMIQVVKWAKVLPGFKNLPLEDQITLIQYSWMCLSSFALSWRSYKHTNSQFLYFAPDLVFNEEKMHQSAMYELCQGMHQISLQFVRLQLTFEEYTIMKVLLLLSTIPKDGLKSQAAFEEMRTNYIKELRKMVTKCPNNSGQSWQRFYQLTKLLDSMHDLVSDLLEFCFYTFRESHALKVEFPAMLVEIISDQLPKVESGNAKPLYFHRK

Glucocorticoid receptor [3] = target: T2, Glucocorticoid receptor; test: Agonist activity at glucocorticoid receptor by MMTV transactivation assay; type: functional
Progesterone receptor = target: T4, Progesterone receptor (Homo sapiens, UniProt P06401); test: Binding affinity to progesterone receptor
T4 sequence (P06401 whole entry): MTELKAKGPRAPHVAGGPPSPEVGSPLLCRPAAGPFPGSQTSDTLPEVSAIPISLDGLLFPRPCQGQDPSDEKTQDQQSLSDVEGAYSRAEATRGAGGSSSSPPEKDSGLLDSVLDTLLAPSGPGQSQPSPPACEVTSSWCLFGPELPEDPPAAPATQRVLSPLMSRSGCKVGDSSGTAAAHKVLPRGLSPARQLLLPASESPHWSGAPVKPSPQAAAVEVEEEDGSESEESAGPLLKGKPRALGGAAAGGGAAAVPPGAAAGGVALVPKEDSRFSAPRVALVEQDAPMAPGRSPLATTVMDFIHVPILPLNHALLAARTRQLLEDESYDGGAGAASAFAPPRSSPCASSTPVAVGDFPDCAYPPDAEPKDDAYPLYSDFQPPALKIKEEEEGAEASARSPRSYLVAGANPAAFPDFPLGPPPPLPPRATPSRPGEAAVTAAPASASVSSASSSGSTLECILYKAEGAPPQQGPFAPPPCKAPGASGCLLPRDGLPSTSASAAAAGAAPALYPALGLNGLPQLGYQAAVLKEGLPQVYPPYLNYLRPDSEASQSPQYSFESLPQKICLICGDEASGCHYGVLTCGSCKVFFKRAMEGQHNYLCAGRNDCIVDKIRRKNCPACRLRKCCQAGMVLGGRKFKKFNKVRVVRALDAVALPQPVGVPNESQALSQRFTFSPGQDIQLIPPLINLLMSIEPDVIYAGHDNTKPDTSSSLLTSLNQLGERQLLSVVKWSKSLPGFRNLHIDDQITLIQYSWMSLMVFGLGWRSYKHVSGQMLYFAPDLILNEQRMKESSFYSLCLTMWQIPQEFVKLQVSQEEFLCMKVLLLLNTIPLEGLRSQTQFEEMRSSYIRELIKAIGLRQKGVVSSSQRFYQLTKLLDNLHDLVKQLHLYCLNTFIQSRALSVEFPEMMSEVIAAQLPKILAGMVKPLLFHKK

EC50 (Androgen receptor): > 10000 nM | IC50 (Glucocorticoid receptor [1]): 3.16 nM | EC50 [2]: > 10000 nM | EC50 (Glucocorticoid receptor [3]): 2 nM | EC50 (Progesterone receptor): > 10000 nM
Compound: CCN(C[C@](O)(CNC(=O)c1cnn(-c2ccc(F)cc2)c1N)C(F)(F)F)C(=O)c1c(Cl)cccc1Cl

Reference: ChEMBL document CHEMBL1152164, “The first X-ray crystal structure of the glucocorticoid receptor bound to a non-steroidal agonist” (Bioorg Med Chem Lett, 2008)
